From patent US20100099700A1, “HYDROGENATED PYRIDO (4,3-B) INDOLES FOR TREATING AMYOTROPHIC LATERAL SCLEROSIS (ALS)” (priority 2006, published 2010)
“Also recorded” adds a separate entry of the source. Read-outs that look alike come from different tables or passages of the source.

What was measured:
[1] = test system: transgenic Drosophila engineered to express the mutant huntingtin protein in all their neurons; conditions: historical positive control; cited from earlier work
[2] = test system: transgenic Drosophila engineered to express the mutant huntingtin protein in all their neurons; test: Inhibition of mutant huntingtin-induced neurodegeneration of photoreceptor neurons in Drosophila eyes (pseudopupil method); assay type: in vivo; conditions: 7 days
Experimental: Dimebon was administered to one group of transgenic Drosophila engineered to express the mutant huntingtin protein in all their neurons as described in U.S. Provisional Patent Application No. 60/723,403. This was accomplished by cloning a foreign gene into transposable p-element DNA vectors under control of a yeast upstream activator sequence that was activated by the yeast GAL4 transcription factor. These promoter fusions were injected into fly embryos to produce transgenic animals. The foreign gene is silent until crossed to another transgenic strain of flies expressing the GAL4 gene in a tissue specific manner. The Elav>Gal4 which expresses the transgene in all neurons from birth until death was used in the experiments described. The two types of transgenic animals were crossed in order to collect enough closely matched aged controls to study. The crossed aged-matched adults (−20 per dosing group) were placed on drug containing food for 7 days. Animals were transferred to fresh food daily to minimize any effects caused by instability of the compounds. Survival was scored daily. At day 7, animals were sacrificed and the number of photoreceptor neurons surviving was counted.

[3] = test system: primary chick neurons; test: 2% growth factor withdrawal (low serum) assay, MTT viability; assay type: cell-based, chicken
Experimental: (§1) Cells: Lohman Brown chicken embryo hybrids were used for the assay. One-day-old fertilised eggs were purchased from a local chicken breeder (Schropper Geflügel GmbH, Austria) and stored in the lab under appropriate conditions (12° C. and 80% humidity). At embryonic day 0 eggs were transferred into a breeding incubator and stored under permanent turning until embryonic day 8 at 37.8° C. and 55% humidity. Approximately five to six chicken embryos were used for isolation of neurons per experiment.
(§2) Eggs were wiped with 70% ethanol and cracked with large forceps at the blunt end. After decapitation of the embryo, the tissue covering the telencephalon was removed and hemispheres collected. After removing any loose tissue and remaining meningeal membranes, hemispheres were transferred into a dish containing nutrition medium. The tissue was dissociated mechanically by using a 1 ml pipette and by squeezing 3 times through a sterile nylon sieve with a pore size of 100 μm.
(§3) Poly-D-Lysine coated 96-well microtiter plates (Biocoat) were used to culture the cells. Culture medium (160 μl) containing 3×10^5 cells/ml nutrition medium (48 000 cells/well) were added to each well of a microtiter plate Plates were kept at 37° C., 95% humidity and 5% CO2 without change of media. Neurons begin to extend processes after a few hours in culture.
Low Serum Culture Conditions: The low serum medium used for the 2% growth factor withdrawal experiments described here includes EMEM with 1 g glucose/l and 2% FCS. The control medium includes DMEM with 4.5 g glucose/l and 5% Nu Serum. […]
Dimebon was applied to the cells on day 1 for the whole experimental period of 8 days. Viability of cells was determined with the MTT assay using a plate-reader (570 nM). […] Since this reaction is catalysed in living cells only the assay can be used for the quantification of cell viability. […] To estimate optical density a plate-reader (Anthos HT II) was used at wavelength 570 nM. […]

[4] = test system: G93AmSOD mice; test: G93AmSOD transgenic mouse treatment model (time to stage 2 / stage 1 disease); assay type: in vivo
Experimental: For this study, G93AmSOD mice were randomized into 4 treatment groups. Mice were weaned and raised on a normal diet for 85 days. Beginning at approximately day 80 or earlier if noted clinically, animals underwent daily assessment for hind limb weakness (time to stage 3 disease). In general, this occurred within a week of day 85. At 85 days, mice were given dimebon in the drinking water at the following concentrations: vehicle control (0 mg/kg/day), low dose (3 mg/kg/day), medium dose (10 mg/kg/day), and high dose (30 mg/kg/day). The drinking water was changed every 3-4 days, and each cage held approximately 3-5 animals.
Animals were weighed and analyzed daily to assess their strength and function. The day during which hind limb paralysis occurred was recorded (progression to stage 2 disease). Also recorded was the day at which the animals could no longer right themselves after 30 seconds (progression to stage 1 disease—a surrogate for mortality). Upon reaching stage 1 disease, animals were euthanized. […] When animals were no longer able to reliably reach the drinking water, they were given their daily mg/kg dose by intraperitoneal injection. Analyses were performed to compare the groups in terms of time to reach stage 2 and time to reach stage 1. As described further below, a Cox proportional hazards model including the effect of treatment group was fit.
(§4) A Cox proportional hazards regression model including the effect of treatment group was fit for the time to stage 2 for both sexes combined. In addition to testing the null hypothesis of no difference among the four groups, pair wise comparisons of each of the treated groups to the control group were tested. The model was fit using the SAS PHREG procedure. The same type of model was then fit to the data for each sex separately.
as §4, with “1” for “2”

[5] = test system: primary chick neurons; test: 2% growth factor withdrawal (low serum) assay, AM-Calcein; assay type: cell-based, chicken; conditions: p<0.01, 8 days
Experimental: as §1, §2
as §3, with “culture. […]” for “culture.”

[6] = test system: wildtype Drosophila fruit flies; test: Toxicity of dimebon in wildtype Drosophila (eclosion number and timing); assay type: in vivo; conditions: daily
Experimental: Dimebon was evaluated for toxicity levels in wildtype Drosophila fruit flies as described in U.S. Provisional Patent Application No. 60/723,403. Dimebon was administered daily at doses ranging from 10 μM to 1 mM to explore its toxicity. An untreated control group was also studied in this experiment. The concentrations given were concentrations of dimebon in the food that animals drink/eat ad libitum. The food consisted of cornmeal, dextrose, yeast and agar.
About 500 wild type Drosophila eggs were collected on grape juice plates, washed with distilled water and transferred 100 per vial to grow at 25 degrees C. The adult progeny were scored after eclosing (emerging from the pupal case) beginning 10 days later. The criteria used for toxicity were the number (%) of animals that eclose and the time of the eclosing. For example, fewer animals may emerge from the pupal case if a drug is toxic or the same number of animals may eclose but more slowly than the untreated control group.

[7] = 3 mg/kg/day versus vehicle, both sexes combined
[8] = 3 mg/kg/day versus vehicle, females
[9] = 3 mg/kg/day versus vehicle, males
[10] = 3 mg/kg/day, both sexes combined
[11] = 10 mg/kg/day versus vehicle, both sexes combined
[12] = 10 mg/kg/day versus vehicle, females
[13] = 10 mg/kg/day versus vehicle, males
[14] = 10 mg/kg/day, both sexes combined
[15] = 30 mg/kg/day versus vehicle, both sexes combined
[16] = 30 mg/kg/day versus vehicle, females
[17] = 30 mg/kg/day versus vehicle, males
[18] = 30 mg/kg/day, both sexes combined

With `C[C@@H](N)[C@H]1CC[C@H](C(=O)Nc2ccncc2)CC1` [Y-27632] as the molecule, how does the “rescue of photoreceptor neurons” value [1] read?
The value was “strongly rescuing”.

What does the source list for `Cc1ccc2c(c1)c1c(n2CCc2ccc(C)nc2)CCN(C)C1.Cl.Cl` [dimebon, 2,8-dimethyl-5-(2-(6-methyl-3-pyridyl)-ethyl)-2,3,4,5-tetrahydro-1H-pyrido(4,3-b)indol dihydrochloride]?
rescue of photoreceptor neurons ([2]; 10 μM in food): lesser but still apparent rescue of neurons; rescue of photoreceptor neurons compared to untreated controls ([2]; 100 μM in food): statistically significant (p=0.0014) rescue of neurons; rescue of photoreceptor neurons ([2]; 1 mM in food): still appeared to cause neuronal rescue, but to a lesser extent; Emax at 6.25 µM ([3]; Gallus gallus, Neuron, 192 h, 6250 nM, 8 days, read-out: maximum effect in the MTT assay, above control): ~287%; Dimebon concentrations at which statistically significant differences compared to control were achieved ([3]; MTT, p<0.05, 8 days): ≥ 1250 nM; effect in the MTT assay ([3]; highest tested concentration 31250 nM): less than what was achieved at a concentration of 6250 nM; Time to Stage 1: hazard ratio (Cox proportional hazards) [4, 7]: 1.112; Time to Stage 2: hazard ratio (Cox proportional hazards) [4, 7]: 0.969; Time to Stage 1: hazard ratio (Cox proportional hazards) [4, 8]: 1.089; Time to Stage 2: hazard ratio (Cox proportional hazards) [4, 8]: 0.882; Time to Stage 1: hazard ratio (Cox proportional hazards) [4, 9]: 0.967; Time to Stage 2: hazard ratio (Cox proportional hazards) [4, 9]: 0.984; Mean Time to Stage 1 (Expressed as a Percentage of the Mean in the Vehicle Group) [4, 10]: 98.8%; Mean Time to Stage 2 (Expressed as a Percentage of the Mean in the Vehicle Group) [4, 10]: 99.8%; Mean Time to Stage 1 (Expressed as a Percentage of the Mean in the Vehicle Group) ([4]; 3 mg/kg/day, females): 97.4%; Mean Time to Stage 2 (Expressed as a Percentage of the Mean in the Vehicle Group) ([4]; 3 mg/kg/day, females): 100.2%; Mean Time to Stage 1 (Expressed as a Percentage of the Mean in the Vehicle Group) ([4]; 3 mg/kg/day, males): 100.2%; Mean Time to Stage 2 (Expressed as a Percentage of the Mean in the Vehicle Group) ([4]; 3 mg/kg/day, males): 99.4%; Time to Stage 1: hazard ratio (Cox proportional hazards) [4, 11]: 0.738; Time to Stage 2: hazard ratio (Cox proportional hazards) [4, 11]: 0.652; Time to Stage 1: hazard ratio (Cox proportional hazards) [4, 12]: 0.855; Time to Stage 2: hazard ratio (Cox proportional hazards) [4, 12]: 0.659; Time to Stage 1: hazard ratio (Cox proportional hazards) [4, 13]: 0.524; Time to Stage 2: hazard ratio (Cox proportional hazards) [4, 13]: 0.545; Mean Time to Stage 1 (Expressed as a Percentage of the Mean in the Vehicle Group) [4, 14]: 103.3%; Mean Time to Stage 2 (Expressed as a Percentage of the Mean in the Vehicle Group) [4, 14]: 104.9%; Mean Time to Stage 1 (Expressed as a Percentage of the Mean in the Vehicle Group) ([4]; 10 mg/kg/day, females): 102.3%; Mean Time to Stage 2 (Expressed as a Percentage of the Mean in the Vehicle Group) ([4]; 10 mg/kg/day, females): 104.9%; Mean Time to Stage 1 (Expressed as a Percentage of the Mean in the Vehicle Group) ([4]; 10 mg/kg/day, males): 104.2%; Mean Time to Stage 2 (Expressed as a Percentage of the Mean in the Vehicle Group) ([4]; 10 mg/kg/day, males): 104.9%; Time to Stage 1: hazard ratio (Cox proportional hazards) [4, 15]: 0.505; Time to Stage 2: hazard ratio (Cox proportional hazards) [4, 15]: 0.522; Time to Stage 1: hazard ratio (Cox proportional hazards) [4, 16]: 0.314; Time to Stage 2: hazard ratio (Cox proportional hazards) [4, 16]: 0.359; Time to Stage 1: hazard ratio (Cox proportional hazards) [4, 17]: 0.647; Time to Stage 2: hazard ratio (Cox proportional hazards) [4, 17]: 0.698; Mean Time to Stage 1 (Expressed as a Percentage of the Mean in the Vehicle Group) [4, 18]: 104.7%; Mean Time to Stage 2 (Expressed as a Percentage of the Mean in the Vehicle Group) [4, 18]: 104.8%; Mean Time to Stage 1 (Expressed as a Percentage of the Mean in the Vehicle Group) ([4]; 30 mg/kg/day, females): 107.0%; Mean Time to Stage 2 (Expressed as a Percentage of the Mean in the Vehicle Group) ([4]; 30 mg/kg/day, females): 107.7%; Mean Time to Stage 1 (Expressed as a Percentage of the Mean in the Vehicle Group) ([4]; 30 mg/kg/day, males): 102.4%; Mean Time to Stage 2 (Expressed as a Percentage of the Mean in the Vehicle Group) ([4]; 30 mg/kg/day, males): 101.8%; Dimebon concentrations at which statistically significant differences compared to control were achieved [5]: ≥ 1250 nM; % of animals eclosing ([6]; 1 mM in food): decrease; timing of emergence slowed ([6]; 1 mM in food): approximately 1 day; toxicity (% of animals that eclose and time of eclosing) ([6]; doses below 1 mM in food, dihydrochloride): no significant toxicity; also recorded: did not show significant toxicity
